# Measured values taken from PubChem BioAssay (NCI).
#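 GI50: concentration for 50% inhibition of growth. Definition used: TGI = concentration required for complete inhibition of growth.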
# What was measured:
# Assay in all cases: NCI tumour cell line growth inhibition, 384-well format
# 786-0 renal = test system: 786-0 renal
# A498 renal = test system: A498 renal
# A549 NSCLC = test system: A549 NSCLC
# ACHN renal = test system: ACHN renal
# BT-549 breast = test system: BT-549 breast
# CAKI-1 renal = test system: CAKI-1 renal
# CCRF-CEM leukemia = test system: CCRF-CEM leukemia
# COLO 205 colon = test system: COLO 205 colon
# DU-145 prostate = test system: DU-145 prostate
# EKVX NSCLC = test system: EKVX NSCLC
# HCC-2998 colon = test system: HCC-2998 colon
# HCT-116 colon = test system: HCT-116 colon
# HCT-15 colon = test system: HCT-15 colon
# HL-60(TB) leukemia = test system: HL-60(TB) leukemia
# HOP-62 NSCLC = test system: HOP-62 NSCLC
# HOP-92 NSCLC = test system: HOP-92 NSCLC
# HS 578T breast = test system: HS 578T breast
# IGROV1 ovarian = test system: IGROV1 ovarian
# K-562 leukemia = test system: K-562 leukemia
# LOX IMVI melanoma = test system: LOX IMVI melanoma
# M14 melanoma = test system: M14 melanoma
# MALME-3M melanoma = test system: MALME-3M melanoma
# MCF7 breast = test system: MCF7 breast
# MDA-MB-231 breast = test system: MDA-MB-231 breast
# MDA-MB-435 melanoma = test system: MDA-MB-435 melanoma
# MDA-MB-468 breast = test system: MDA-MB-468 breast
# MOLT-4 leukemia = test system: MOLT-4 leukemia
# NCI-H226 lung = test system: NCI-H226 lung
# NCI-H23 lung = test system: NCI-H23 lung
# NCI-H322M lung = test system: NCI-H322M lung
# NCI-H460 NSCLC = test system: NCI-H460 NSCLC
# NCI-H522 lung = test system: NCI-H522 lung
# NCI/ADR-RES ovarian = test system: NCI/ADR-RES ovarian
# OVCAR-3 ovarian = test system: OVCAR-3 ovarian
# OVCAR-4 ovarian = test system: OVCAR-4 ovarian
# OVCAR-5 ovarian = test system: OVCAR-5 ovarian
# OVCAR-8 ovarian = test system: OVCAR-8 ovarian
# PC-3 prostate = test system: PC-3 prostate
# RPMI-8226 leukemia = test system: RPMI-8226 leukemia
# RXF 393 renal = test system: RXF 393 renal
# SF-268 CNS = test system: SF-268 CNS
# SF-295 CNS = test system: SF-295 CNS
# SF-539 CNS = test system: SF-539 CNS
# SK-MEL-28 melanoma = test system: SK-MEL-28 melanoma
# SK-MEL-5 melanoma = test system: SK-MEL-5 melanoma
# SK-OV-3 ovarian = test system: SK-OV-3 ovarian
# SN12C renal = test system: SN12C renal
# SNB-19 CNS = test system: SNB-19 CNS
# SNB-75 CNS = test system: SNB-75 CNS
# SW-620 colon = test system: SW-620 colon
# TK-10 renal = test system: TK-10 renal
# U251 glioblastoma = test system: U251 glioblastoma
# UACC-257 melanoma = test system: UACC-257 melanoma
# UACC-62 melanoma = test system: UACC-62 melanoma
# UO-31 renal = test system: UO-31 renal
smiles,measurement,setting,value
N#CCCNc1nonc1-c1nc2ccccc2n1CC(=O)c1ccc(NC(=O)[C@@H](N)CCCCN)cc1,GI50,786-0 renal,36.3 nM
same,TGI,786-0 renal,422 nM
same,GI50,A498 renal,30.6 nM
same,TGI,A498 renal,> 100 µM
same,GI50,A549 NSCLC,36.9 nM
same,TGI,A549 NSCLC,> 100 µM
same,GI50,ACHN renal,63.6 nM
same,TGI,ACHN renal,> 100 µM
same,GI50,BT-549 breast,22.2 nM
same,TGI,BT-549 breast,54 nM
same,GI50,CAKI-1 renal,41.1 nM
same,TGI,CAKI-1 renal,> 100 µM
same,GI50,CCRF-CEM leukemia,18.3 nM
same,TGI,CCRF-CEM leukemia,33.1 nM
same,GI50,COLO 205 colon,27.8 nM
same,TGI,COLO 205 colon,78.3 nM
same,GI50,DU-145 prostate,37.5 nM
same,TGI,DU-145 prostate,640 nM
same,GI50,EKVX NSCLC,54.5 nM
same,TGI,EKVX NSCLC,> 100 µM
same,GI50,HCC-2998 colon,24.9 nM
same,TGI,HCC-2998 colon,74.1 nM
same,GI50,HCT-116 colon,33.3 nM
same,TGI,HCT-116 colon,192 nM
same,GI50,HCT-15 colon,30 nM
same,TGI,HCT-15 colon,103 nM
same,GI50,HL-60(TB) leukemia,20.7 nM
same,TGI,HL-60(TB) leukemia,35.8 nM
same,GI50,HOP-62 NSCLC,38.8 nM
same,TGI,HOP-62 NSCLC,1020 nM
same,GI50,HOP-92 NSCLC,51.5 nM
same,TGI,HOP-92 NSCLC,884 nM
same,GI50,HS 578T breast,17.4 nM
same,TGI,HS 578T breast,36.9 nM
same,GI50,IGROV1 ovarian,43.5 nM
same,TGI,IGROV1 ovarian,> 100 µM
same,GI50,K-562 leukemia,18.7 nM
same,TGI,K-562 leukemia,38.8 nM
same,GI50,LOX IMVI melanoma,46 nM
same,TGI,LOX IMVI melanoma,407 nM
same,GI50,M14 melanoma,19.9 nM
same,TGI,M14 melanoma,46.5 nM
same,GI50,MALME-3M melanoma,34.8 nM
same,TGI,MALME-3M melanoma,163 nM
same,GI50,MCF7 breast,39.4 nM
same,TGI,MCF7 breast,3.27 µM
same,GI50,MDA-MB-231 breast,135 nM
same,TGI,MDA-MB-231 breast,78.6 µM
same,GI50,MDA-MB-435 melanoma,19.4 nM
same,TGI,MDA-MB-435 melanoma,38.3 nM
same,GI50,MDA-MB-468 breast,19.9 nM
same,TGI,MDA-MB-468 breast,46.1 nM
same,GI50,MOLT-4 leukemia,16.8 nM
same,TGI,MOLT-4 leukemia,31.1 nM
same,GI50,NCI-H226 lung,90.3 nM
same,TGI,NCI-H226 lung,41.9 µM
same,GI50,NCI-H23 lung,21.8 nM
same,TGI,NCI-H23 lung,52.6 nM
same,GI50,NCI-H322M lung,73 nM
same,TGI,NCI-H322M lung,> 100 µM
same,GI50,NCI-H460 NSCLC,22.1 nM
same,TGI,NCI-H460 NSCLC,47.3 nM
same,GI50,NCI-H522 lung,17.7 nM
same,TGI,NCI-H522 lung,37 nM
same,GI50,NCI/ADR-RES ovarian,18.2 nM
same,TGI,NCI/ADR-RES ovarian,35.1 nM
same,GI50,OVCAR-3 ovarian,19.9 nM
same,TGI,OVCAR-3 ovarian,45.7 nM
same,GI50,OVCAR-4 ovarian,86.1 nM
same,TGI,OVCAR-4 ovarian,66.3 µM
same,GI50,OVCAR-5 ovarian,120 nM
same,TGI,OVCAR-5 ovarian,> 100 µM
same,GI50,OVCAR-8 ovarian,32 nM
same,TGI,OVCAR-8 ovarian,117 nM
same,GI50,PC-3 prostate,38.9 nM
same,TGI,PC-3 prostate,948 nM
same,GI50,RPMI-8226 leukemia,19.2 nM
same,TGI,RPMI-8226 leukemia,35.4 nM
same,GI50,RXF 393 renal,20.8 nM
same,TGI,RXF 393 renal,53 nM
same,GI50,SF-268 CNS,13.6 nM
same,TGI,SF-268 CNS,47.4 nM
same,GI50,SF-295 CNS,26.3 nM
same,TGI,SF-295 CNS,71.4 nM
same,GI50,SF-539 CNS,20 nM
same,TGI,SF-539 CNS,45.7 nM
same,GI50,SK-MEL-28 melanoma,78.1 nM
same,TGI,SK-MEL-28 melanoma,46.3 µM
same,GI50,SK-MEL-5 melanoma,20.9 nM
same,TGI,SK-MEL-5 melanoma,57.1 nM
same,GI50,SK-OV-3 ovarian,39.9 nM
same,TGI,SK-OV-3 ovarian,16.2 µM
same,GI50,SN12C renal,45.2 nM
same,TGI,SN12C renal,2170 nM
same,GI50,SNB-19 CNS,37 nM
same,TGI,SNB-19 CNS,> 100 µM
same,GI50,SNB-75 CNS,38.7 nM
same,TGI,SNB-75 CNS,66.6 µM
same,GI50,SW-620 colon,42.4 nM
same,TGI,SW-620 colon,88.4 µM
same,GI50,TK-10 renal,83.4 nM
same,TGI,TK-10 renal,93 µM
same,GI50,U251 glioblastoma,32.8 nM
same,TGI,U251 glioblastoma,148 nM
same,GI50,UACC-257 melanoma,59.1 nM
same,TGI,UACC-257 melanoma,22.6 µM
same,GI50,UACC-62 melanoma,31 nM
same,TGI,UACC-62 melanoma,344 nM
same,GI50,UO-31 renal,60.1 nM
same,TGI,UO-31 renal,11.3 µM
